Experiments:
Experiment in all cases: relative viability (nuclei count vs DMSO), 5 days (fraction); higher = more cells survive
[1] = compound: C1=CC=C2C(=C1)N=C(S2)C(C#N)C3=NC(=NC=C3)NCCC4=CN=CC=C4 + CS(=O)(=O)CCNCc1ccc(-c2ccc3ncnc(Nc4ccc(OCc5cccc(F)c5)c(Cl)c4)c3c2)o1 [Lapatinib] (partner 2 µM)
Outline: (§1)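 Cells from lung cancer lines were seeded into 1536-well plates and, one day later, dosed by pin tool. Treatments were either a single drug or a fixed dose of an anchor drug with five library-drug doses (not always all listed) in √10 steps. After 5 days, nuclei were stained in a one-step fixation (final 0.05% Triton X-100, 1% formaldehyde, 1 ug/ml Hoechst) and counted on 4× images, and relative viability is the treated-to-vehicle nuclei ratio, as the median of duplicate plates.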

NVP-TAE684 + Trametinib = compound: COc1cc(N2CCC(N3CCN(C)CC3)CC2)ccc1Nc1ncc(Cl)c(Nc2ccccc2S(=O)(=O)C(C)C)n1 [NVP-TAE684] + CC(=O)Nc1cccc(-n2c(=O)n(C3CC3)c(=O)c3c(Nc4ccc(I)cc4F)n(C)c(=O)c(C)c32)c1 [Trametinib] (partner 0.02 µM)
Outline: as §1

[2] = compound: C1=CC=C2C(=C1)N=C(S2)C(C#N)C3=NC(=NC=C3)NCCC4=CN=CC=C4 + CC1(C)CCC(c2ccc(Cl)cc2)=C(CN2CCN(c3ccc(C(=O)NS(=O)(=O)c4ccc(N[C@H](CCN5CCOCC5)CSc5ccccc5)c(S(=O)(=O)C(F)(F)F)c4)cc3)CC2)C1 [Navitoclax] (partner 0.5 µM)
Outline: as §1

NVP-TAE684 + Luminespib = compound: COc1cc(N2CCC(N3CCN(C)CC3)CC2)ccc1Nc1ncc(Cl)c(Nc2ccccc2S(=O)(=O)C(C)C)n1 [NVP-TAE684] + CCNC(=O)c1noc(-c2cc(C(C)C)c(O)cc2O)c1-c1ccc(CN2CCOCC2)cc1 [Luminespib] (partner 0.01 µM)
Outline: as §1

Cell Line	relative viability ([1]; first compound 0.005 µM)	relative viability ([1]; first compound 0.01581 µM)	relative viability ([1]; first compound 0.05 µM)	relative viability ([1]; first compound 0.1581 µM)	relative viability ([1]; first compound 0.5 µM)	relative viability (NVP-TAE684 + Trametinib; first compound 0.2 µM)	relative viability (NVP-TAE684 + Trametinib; first compound 0.6325 µM)	relative viability (NVP-TAE684 + Trametinib; first compound 2 µM)	relative viability ([2]; first compound 0.005 µM)	relative viability ([2]; first compound 0.01581 µM)	relative viability ([2]; first compound 0.05 µM)	relative viability ([2]; first compound 0.1581 µM)	relative viability ([2]; first compound 0.5 µM)	relative viability (NVP-TAE684 + Luminespib; first compound 0.2 µM)	relative viability (NVP-TAE684 + Luminespib; first compound 0.6325 µM)	relative viability (NVP-TAE684 + Luminespib; first compound 2 µM)
NCI-H2405	1.05	0.817	1.11	1.11	1.02	0.578	0.556	0.336	0.828	0.936	0.815	0.862	0.859	0.703	0.694	0.386
NCI-H2087	1.05	0.898	1.03	1.14	0.966	0.175	0.211	0.168	0.986	1.01	1.16	1	0.927	0.146	0.205	0.151
NCI-H2023	0.793	0.85	0.793	1.2	0.711	0.462	0.498	0.155	0.971	0.979	0.948	1.13	0.707	0.792	0.828	0.215
NCI-H3122	1.01	1	1.06	1	1.03	0.12	0.148	0.0944	0.935	1.04	0.984	1.04	1.01	0.0817	0.0775	0.068
ChaGo-K-1	–	–	–	–	–	0.899	0.843	0.58	0.955	–	0.838	1.21	0.954	0.661	0.67	0.44
NCI-H2347	1.08	0.909	0.846	1.04	0.91	0.275	0.264	0.355	0.727	0.891	0.834	0.827	0.735	0.245	0.264	0.45
NCI-H460	–	1.12	1.06	1.85	0.273	0.173	0.16	0.0273	–	1.38	1.13	1.23	0.656	0.0418	0.0325	0.0305
HCC-827	0.242	0.183	0.259	0.188	0.208	0.478	0.529	0.442	1.07	1.07	1.02	1.05	1.04	0.52	0.613	0.65
HOP-62	0.874	1	0.893	1.12	0.903	0.404	0.338	0.377	0.854	1.25	1.05	1.16	0.871	1.03	0.816	0.882
NCI-H1792	–	0.881	0.936	1.52	0.661	0.413	0.388	0.271	–	0.571	0.631	0.961	0.451	0.396	0.411	0.359
HCC-15	0.798	0.84	0.817	0.947	0.805	0.355	0.418	0.186	0.736	0.787	0.664	0.749	0.602	0.241	0.271	0.232
NCI-H1755	0.874	1.08	1	1.17	0.78	0.769	0.846	0.729	0.968	1.1	1	1.15	0.948	0.304	0.272	0.445
NCI-H23	–	1.16	1.12	1.22	1.14	0.493	0.333	0.208	–	0.958	0.728	0.959	0.958	0.225	0.21	0.204
BEN	0.561	0.689	0.62	0.792	0.826	0.983	0.912	–	0.0669	0.0686	0.0618	0.134	0.0603	0.444	0.172	0.34
NCI-H1651	0.76	0.697	1.03	1.11	0.872	–	0.86	0.771	0.9	1.08	0.95	1.11	1.17	1.24	–	0.693
NCI-H2126	0.75	0.718	0.721	0.873	0.685	0.628	0.637	0.388	0.91	0.913	0.782	0.831	0.842	0.94	0.845	0.398
EKVX	0.237	0.185	0.201	0.211	0.195	0.285	0.241	0.334	0.947	0.986	1.09	0.949	1.11	0.877	0.913	0.754
NCI-H1650	0.894	0.658	0.758	0.829	0.863	0.522	0.507	0.221	0.964	1.17	1.22	1.31	1.07	0.184	0.206	0.182
NCI-H1703	0.869	1.11	0.851	1.1	1.19	–	–	–	1.01	1.04	1.02	1.14	1.02	–	–	–
NCI-H727	0.857	0.821	0.813	0.83	0.795	0.406	0.349	0.308	0.465	0.334	0.347	0.414	0.397	0.24	0.382	0.216
NCI-H838	0.916	0.962	1.12	1.15	0.95	0.566	0.407	0.202	1.02	1.22	1.16	1.1	1.22	0.27	0.275	0.282

Cell Line	relative viability ([1]; first compound 0.005 µM)	relative viability ([1]; first compound 0.01581 µM)	relative viability ([1]; first compound 0.05 µM)	relative viability ([1]; first compound 0.1581 µM)	relative viability ([1]; first compound 0.5 µM)	relative viability (NVP-TAE684 + Trametinib; first compound 0.2 µM)	relative viability (NVP-TAE684 + Trametinib; first compound 0.6325 µM)	relative viability (NVP-TAE684 + Trametinib; first compound 2 µM)	relative viability ([2]; first compound 0.005 µM)	relative viability ([2]; first compound 0.01581 µM)	relative viability ([2]; first compound 0.05 µM)	relative viability ([2]; first compound 0.1581 µM)	relative viability ([2]; first compound 0.5 µM)	relative viability (NVP-TAE684 + Luminespib; first compound 0.2 µM)	relative viability (NVP-TAE684 + Luminespib; first compound 0.6325 µM)	relative viability (NVP-TAE684 + Luminespib; first compound 2 µM)
NCI-H1944	0.89	0.847	0.746	0.977	0.819	0.41	0.41	0.364	1.05	1.06	0.983	1.06	1.04	0.667	0.741	0.58
SK-LU-1	–	0.856	0.934	1.18	0.832	0.42	0.445	0.383	–	0.828	0.694	1.02	1.02	0.188	0.217	0.167
NCI-H650	0.665	0.625	0.994	1.45	0.718	1.08	0.951	0.726	–	–	–	–	–	0.776	0.682	0.489
EBC-1	0.272	0.19	0.239	0.194	0.259	–	–	–	0.402	0.426	0.317	0.472	0.298	–	–	–
HCC-366	0.941	1.15	0.921	1.18	1.07	0.352	0.374	0.14	0.853	0.998	1.04	1.28	0.98	–	–	–
NCI-H2342	–	–	–	–	–	0.77	0.935	0.638	–	–	–	–	–	0.742	0.845	0.647
NCI-H661	0.512	0.533	0.451	0.519	0.476	0.552	0.616	0.563	–	–	–	–	–	1	0.883	–
SW 900	–	–	–	–	–	0.743	0.51	0.594	–	–	–	–	–	0.164	0.154	0.158
HCC-78	1.07	0.664	0.57	1.01	0.896	0.603	0.57	0.401	0.454	0.774	0.623	0.912	0.818	–	–	–
IA-LM	–	1.02	0.824	0.888	0.673	–	–	–	–	0.816	0.817	0.826	0.568	–	–	–
NCI-H522	–	–	–	–	–	0.652	0.776	0.738	–	–	–	–	–	0.925	1.28	1.02
NCI-H358	0.436	0.413	0.463	0.518	0.481	0.147	0.107	0.0912	–	–	–	–	–	0.25	0.337	0.115
NCI-H1299	0.941	0.991	0.946	0.998	0.918	–	–	–	1.08	1.11	1.05	1.11	1.09	–	–	–
ABC-1	1.08	1.26	1.21	1.02	1.21	–	–	–	–	–	–	–	–	0.405	0.264	0.381
NCI-H441	–	–	–	–	–	0.359	0.333	0.263	–	0.625	0.513	0.575	0.48	0.315	0.313	0.36
NCI-H1623	–	–	–	–	–	–	–	–	–	–	–	–	–	0.531	0.54	0.322
NCI-H1563	0.857	0.871	0.775	0.938	0.916	–	–	–	–	–	–	–	–	0.542	0.548	0.407
NCI-H1648	–	–	–	–	–	0.395	0.433	0.284	–	–	–	–	–	–	–	–
LCLC-103H	–	–	–	–	–	0.692	0.693	0.603	–	–	–	–	–	0.918	0.923	0.61
A549	1.04	0.97	1.04	1.07	0.942	–	–	–	1.26	1.19	1.11	1.31	1.29	–	–	–
Calu-6	0.877	1.05	0.959	1.18	0.958	–	–	–	0.785	0.834	0.819	0.961	0.768	–	–	–
